# Results: patent US11981677B2, “Further substituted triazolo quinoxaline derivatives” (Grünenthal GmbH, priority 2018, dated 2024)
# Biological target: T1, Glucocorticoid Receptor (Homo sapiens, UniProt P04150)
# T1 construct: expressed in transfected cells
# T1 sequence (P04150 524-758 limits assumed): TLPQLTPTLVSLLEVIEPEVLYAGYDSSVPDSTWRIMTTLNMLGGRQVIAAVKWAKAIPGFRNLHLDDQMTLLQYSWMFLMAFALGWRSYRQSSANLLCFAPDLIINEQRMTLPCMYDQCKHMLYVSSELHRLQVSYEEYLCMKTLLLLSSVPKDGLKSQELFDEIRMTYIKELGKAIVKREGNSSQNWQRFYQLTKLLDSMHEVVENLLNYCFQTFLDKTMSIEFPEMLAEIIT
# Assay: Agonistic mode of action on the glucocorticoid receptor (CHO-Gal4/GR luciferase reporter cell line)
# Format: cell-based
# Settings: CHO-Gal4/GR luciferase reporter cells; observed in the agonistic assay or the antagonistic assay (mode not given); read-out: IC50 or EC50 range
# Source text: Potential selective glucocorticoid receptor modulators of this intervention can be tested for modulation of the activity of the glucocorticoid receptor using cell-based assays. These assays involve a Chinese hamster ovary (CHO) cell line which contains fragments of the glucocorticoid receptor as well as fusion proteins. The glucocorticoid receptor fragments used are capable of binding the ligand (e.g. beclomethasone) to identify molecules that compete for binding with glucocorticoid receptor ligands. In more detail, the glucocorticoid receptor ligand binding domain is fused to the DNA binding domain (DBD) of the transcriptionfactor GAL4 (GAL4 DBD-GR) and is stably integrated into a CHO cell line containing a GAL4-UAS-Luciferase reporter construct. […] After cell lysis the luminescence that is produced by luciferase after addition of the substrate is detected and EC50 or IC50 values can be calculated. Engagement of molecules which induce gene expression via glucocortocoid receptor binding to the DNA leads to expression of the luciferase gene under the control of the fusion protein GAL4 DBD-GR and therefore to a dose-dependent increase of the luminescence signal. Binding of molecules which repress beclomethasone-induced gene expression of the luciferase gene under the control of the fusion protein GAL4 DBD-GR leads to a dose-dependent reduction of the luminescence signal.
# The reporter cell line CHO-Gal4/GR consisted of a chinese hamster ovary (CHO) cell line (Leibniz Institute DSMZ—German Collection of Microorganisms and Cell Cultures GmbH: ACC-110) containing a firefly luciferase gene under the control of the GR ligand binding domain fused to the DNA binding domain (DBD) of GAL4 (GAL4 DBD-GR) stably integrated into CHO cells. This cell line was established by stable transfection of CHO cells with a GAL4-UAS-Luciferase reporter construct. In a subsequent step the ligand binding domain of the GR cloned into pIRES2-EGFP-GAL4 containing the DNA binding domain of GAL4 from pFA-AT2 was transfected. This fusion construct activated firefly luciferase expression under the control of a multimerized GAL4 upstream activation sequence (UAS). The signal of the emitted luminescence was recorded by the FLIPR^TETRA. This allowed for specific detection of ligand-induced activation of the GR and therefore for the identification of compounds with agonistic properties. The GAL4/UAS reporter was premixed with a vector that constitutively expressed Renilla luciferase, which served as an internal positive control for transfection efficiency.
# The complete culture medium for the assay was: • DMEM F-12 (1:1) MIXTURE (LONZA cat. No: BE04-687F/U1) 500 mL • 5 mL of 100 mM Sodium Pyruvate (LONZA cat. No: BE12-115E) • 25 mL of 7.5% Sodium Bicarbonate (LONZA cat. No BE17-613E) • 6.5 mL of 1 M Hepes (LONZA cat. No: BE17-737E) • 5 mL of 100× Penicillin/Streptomycin (LONZA cat. No DE17-602E) • 50 mL of Fetal Bovine Serum (Euroclone cat. No ECS 0180L) • 0.25 mL of 10 mg/mL Puromycin (InvivoGen cat.: ant-pr-1) • 0.5 mL of 100 mg/mL Zeocin (InvivoGen cat.: ant-zn-1)
# Cryo-preserved CHO-Gal4/GR cells were suspended in complete medium and 5000 cells/25 μl/well were seeded into the wells of 384-well polystyrene assay plates (Thermo Scientific, cat. #4332) and cultured at 37° C., 5% CO2 and 95% humidity. After 24 hours growth medium was carefully removed and replaced by 30111 Opti-MEM (GIBCO, cat. #31985062) as assay buffer. To test the compounds an 8-point half-log compound dilution curve was generated in 100% DMSO starting from a 2 mM stock and compounds were then diluted 1:50 in Opti-MEM. 10111 of compounds were then added to the wells containing 30 μl Opti-MEM resulting in a final assay concentration range from 10 μM to 0.003 μM in 0.5% DMSO. Compounds were tested at 8 concentrations in quadruplicate data points. […] Finally, cells were lysed with 20 μl of Triton/Luciferin solution and the signal of the emitted luminescence was recorded at the FLIPR^TETRA for 2 minutes. […]
row,SMILES,"IC50 or EC50 (antagonist or agonist mode, not stated per compound) [nM]"
1,"Cc1cc(-c2cc(F)c3c(c2C)-n2c(C)nnc2C(C)(C)N3)c2ccn(S(C)(=O)=O)c2c1 [Example 475, 6-Fluoro-1,4,4,9-tetramethyl-8-(6-methyl-1-methylsulfonyl-1H-indol-4-yl)-5H-[1,2,4]triazolo[4,3-a]quinoxaline]",100 to 1000
2,"Cc1nnc2n1-c1c(c(F)cc(-c3cc(F)cc4c3cnn4S(C)(=O)=O)c1C1CC1)NC2(C)C [Example 467, 9-Cyclopropyl-6-fluoro-8-(6-fluoro-1-methylsulfonyl-1H-indazol-4-yl)-1,4,4-trimethyl-5H-[1,2,4]triazolo[4,3-a]quinoxaline]",100 to 1000
3,"Cc1c[nH]c2c(-c3cc(F)c4c(c3C(F)F)-n3c(C)nnc3C(C)(C)N4)cc(F)cc12 [Example 462, 9-(Difluoro-methyl)-6-fluoro-8-(5-fluoro-3-methyl-1H-indol-7-yl)-1,4,4-trimethyl-5H-[1,2,4]triazolo[4,3-a]quinoxaline]",< 100
4,"COc1c(-c2cccc3[nH]ccc23)cc(F)c2c1-n1c(C)nnc1C(C)(C)N2 [Example 469, 6-Fluoro-8-(1H-indol-4-yl)-9-methoxy-1,4,4-trimethyl-5H-[1,2,4]triazolo[4,3-a]quinoxaline]",100 to 1000
5,"COc1c(-c2cc(F)cc3c2ccn3CCO)cc(F)c2c1-n1c(C3CC3)nnc1C(C)(C)N2 [Example 61, 2-[4-(1-Cyclopropyl-6-fluoro-9-methoxy-4,4-dimethyl-5H-[1,2,4]triazolo[4,3-a]quinoxalin-8-yl)-6-fluoro-1H-indol-1-yl]-EtOH]",1000 to 15000
6,"Cc1c(-c2cc(F)cc3c2cnn3S(C)(=O)=O)cc(F)c2c1-n1c(C)nnc1C(C)(C)N2 [Example 340, 6-Fluoro-8-(6-fluoro-1-methylsulfonyl-1H-indazol-4-yl)-1,4,4,9-tetramethyl-5H-[1,2,4]triazolo[4,3-a]quinoxaline]",100 to 1000
7,"COc1c(-c2cc(F)cc3c2ccn3CC(F)F)cc(F)c2c1-n1c(C)nnc1C(C)(C)N2 [Example 58, 8-(1-(2,2-difluoroethyl)-6-fluoro-1H-indol-4-yl)-6-fluoro-9-methoxy-1,4,4-trimethyl-4,5-dihydro-[1,2,4]triazolo[4,3-a]quinoxaline]",100 to 1000
8,"CCc1c(-c2cccc3c2ccn3S(C)(=O)=O)cc(F)c2c1-n1c(C)nnc1C(C)(C)N2 [Example 49, 9-ethyl-6-fluoro-1,4,4-trimethyl-8-(1-(methylsulfonyl)-1H-indol-4-yl)-4,5-dihydro-[1,2,4]triazolo[4,3-a]quinoxaline]",100 to 1000
9,"Cc1nnc2n1-c1c(c(F)cc(-c3cc(F)cc4c3ccn4S(C)(=O)=O)c1C(F)F)NC2(C)C [Example 455, 9-(difluoromethyl)-6-fluoro-8-(6-fluoro-1-(methylsulfonyl)-1H-indol-4-yl)-1,4,4-trimethyl-4,5-dihydro-[1,2,4]triazolo[4,3-a]quinoxaline]",< 100
10,"Cc1c(-c2cc(F)cc3c2cnn3S(C)(=O)=O)c(F)c(F)c2c1-n1c(C)nnc1C(C)(C)N2 [Example 452, 6,7-Difluoro-8-(6-fluoro-1-methylsulfonyl-1H-indazol-4-yl)-1,4,4,9-tetramethyl-5H-[1,2,4]triazolo[4,3-a]quinoxaline]",< 100
11,"CCS(=O)(=O)n1ccc2c(-c3cc(F)c4c(c3C)-n3c(C)nnc3C(C)(C)N4)cccc21 [Example 350, 8-[1-(Ethylsulfonyl)-1H-indol-4-yl]-6-fluoro-1,4,4,9-tetramethyl-5H-[1,2,4]triazolo[4,3-a]quinoxaline]",< 100
12,"Cc1c(-c2cc(F)cc3c2ccn3S(C)(=O)=O)cc(Cl)c2c1-n1c(C)nnc1C(C)(C)N2 [Example 457, 6-Chloro-8-(6-fluoro-1-methylsulfonyl-1H-indol-4-yl)-1,4,4,9-tetramethyl-5H-[1,2,4]triazolo[4,3-a]quinoxaline]",< 100

# More lines, now with the values ahead:
row,"IC50 or EC50 (antagonist or agonist mode, not stated per compound) [nM]",SMILES
1,100 to 1000,"COc1c(-c2cc(F)cc3c2cnn3S(C)(=O)=O)c(F)c(F)c2c1-n1c(C)nnc1C(C)(C)N2 [Example 501, 6,7-Difluoro-8-(6-fluoro-1-methylsulfonyl-1H-indazol-4-yl)-9-methoxy-1,4,4-trimethyl-5H-[1,2,4]triazolo[4,3-a]quinoxaline]"
2,< 100,"Cc1c(-c2cc(F)cc3c(C)c[nH]c23)c(Cl)c(F)c2c1-n1c(C)nnc1C(C)(C)N2 [Example 526, 7-Chloro-6-fluoro-8-(5-fluoro-3-methyl-1H-indol-7-yl)-1,4,4,9-tetramethyl-5H-[1,2,4]triazolo[4,3-a]quinoxaline]"
3,100 to 1000,"COc1c(-c2cc(F)cc3cc[nH]c23)cc(F)c2c1-n1c(C)nnc1C(C)(C)N2 [Example 515, 6-Fluoro-8-(5-fluoro-1H-indol-7-yl)-9-methoxy-1,4,4-trimethyl-5H-[1,2,4]triazolo[4,3-a]quinoxaline]"
4,100 to 1000,"Cc1nnc2n1-c1c(c(F)c(F)c(-c3cc(F)cc4c3cnn4S(C)(=O)=O)c1C(F)(F)F)NC2(C)C [Example 519, 6,7-Difluoro-8-(6-fluoro-1-methylsulfonyl-1H-indazol-4-yl)-1,4,4-trimethyl-9-(trifluoromethyl)-5H-[1,2,4]triazolo[4,3-a]quinoxaline]"
5,100 to 1000,"CNc1c(-c2cc(F)cc3c2ccn3CCO)cc(F)c2c1-n1c(C)nnc1C(C)(C)N2 [Example 480, 2-[6-Fluoro-4-(6-fluoro-1,4,4-trimethyl-9-methylamino-5H-[1,2,4]triazolo[4,3-a]quinoxalin-8-yl)-1H-indol-1-yl]-EtOH]"
6,100 to 1000,"COc1c(-c2cc(F)cc3c2cnn3S(C)(=O)=O)cc(Cl)c2c1-n1c(C)nnc1C(C)(C)N2 [Example 493, 6-Chloro-8-(6-fluoro-1-methylsulfonyl-1H-indazol-4-yl)-9-methoxy-1,4,4-trimethyl-5H-[1,2,4]triazolo[4,3-a]quinoxaline]"
7,100 to 1000,"Cc1c(-c2ccc(F)c3[nH]ncc23)cc(F)c2c1-n1c(C)nnc1C(C)(C)N2 [Example 517, 6-Fluoro-8-(7-fluoro-1H-indazol-4-yl)-1,4,4,9-tetramethyl-5H-[1,2,4]triazolo[4,3-a]quinoxaline]"
8,100 to 1000,"COc1cc(-c2cc(F)c3c(c2C)-n2c(C)nnc2C(C)(C)N3)c2ccn(S(C)(=O)=O)c2c1 [Example 523, 6-Fluoro-8-(6-methoxy-1-methylsulfonyl-1H-indol-4-yl)-1,4,4,9-tetramethyl-5H-[1,2,4]triazolo[4,3-a]quinoxaline]"
9,< 100,"Cc1c(-c2cc(F)cc3c2cnn3S(C)(=O)=O)c(Cl)c(F)c2c1-n1c(C)nnc1C(C)(C)N2 [Example 525, 7-Chloro-6-fluoro-8-(6-fluoro-1-methylsulfonyl-1H-indazol-4-yl)-1,4,4,9-tetramethyl-5H-[1,2,4]triazolo[4,3-a]quinoxaline]"
